Legend:
Type in all cases: in vivo
tomato plants = assay: Growth inhibition/tomato plants; details: Solanum lycopersicum, 192 h; 500 ppm spray on plants 10 cm high; after 8 days vs untreated control
Procedure: (§1) Solvent: 40 parts by weight acetone
(§2) Emulsifier: 0.25 parts by weight alkylaryl polyglycol ether
(§3) To produce a suitable preparation of active compounds, 1 part by weight of active compound was mixed with the stated amount of solvent which contained the stated amount of emulsifier, and the concentrate was diluted with a disodium hydrogen phosphate-potassium dihydrogen phosphate buffer solution (pH 6) to the desired concentration.
Tomato plants of a height of 10 cm were sprayed with a preparation which contained 500 ppm of active compound.
After 8 days, the percentage inhibition of the treated plants compared with the untreated control plant was determined. With 100% inhibition, no growth was present; with 0% inhibition, the growth corresponded to that of the control plant.
The active compounds, concentration of active compound in ppm (=mg/kg) and the results can be seen from the following Table.

linseed = assay: Growth inhibition/linseed test; details: 72 h, root length after 3 days vs control, dark, 25°C, pH 6
Procedure: as §1, §2
as §3, with “compound,” for “compounds,”
Batches of 25 linseeds were laid out on two filter papers in a Petri dish. 10 ml. of the preparation of active compound were pipetted into each dish. Germination of the seeds took place in the dark at 25°C.
After 3 days, the length of the roots was determined and the growth inhibition compared with the control plant was expressed as a percentage. 100% denoted the standstill of growth, and 0% denoted a growth corresponding to that of the untreated plant.
The active compounds, the concentrations of the active compounds in ppm (=mg/kg) and results can be seen from the following Table.

[1] = system: beans (Phaseolus vulgaris); assay: Growth inhibition/bean plants; details: 500 ppm spray on beans 10 cm high; length after 8 days; water control 26 cm
Procedure: as §1, §2
as §3, with “compound,” for “compounds,”, “concentrations.” for “concentration.”
Beans (Phaseolus vulgaris) 10 cm high were sprayed with preparations which contained 500 ppm of active compound.
After 8 days, the length of the treated plants compared with the untreated control plant was determined.
The active compounds, concentrations of active compound in ppm (=mg/kg) and the results can be seen from the following Table.

oat grains = assay: Growth inhibition/oat grains; details: 72 h, shoot length after 3 days vs control, dark, 25°C, pH 6
Procedure: as §1, §2
as §3, with “compound,” for “compounds,”
Batches of 25 oat grains were laid out on two filter papers in a Petri dish. 10 ml. of the preparation of active compound were pipetted into each dish. Germination of the seeds took place in the dark at 25°C.
After 3 days, the length of the shoot was determined and the growth inhibition compared with the control plant was expressed as a percentage. 100% denoted the standstill of growth, and 0% denoted a growth corresponding to that of the untreated plant.
The active compounds, concentrations of the active compounds in ppm (=mg/kg) and the results can be seen from the following Table.

apple seedlings = assay: Growth inhibition/apple seedlings; details: 168 h; 500 ppm spray on seedlings about 2 cm high; after 7 days vs untreated control
Procedure: as §1, §2
as §3, with “compound,” for “compounds,”
Apple seedlings were, at a height of about 2 cm, sprayed with a preparation which contained 500 ppm of active compound.
After 7 days, the percentage inhibition of the treated plants compared with the untreated control plant was determined. With 100% inhibition, no growth was present; with 0% inhibition, the growth corresponded to that of the control plant.
The active compounds, the concentrations of the active compounds in ppm (=mg/kg) and the results can be seen from the following Table.

Row | SMILES | inhibition at 500 ppm (tomato plants) [%] | inhibition at 50 ppm (linseed) [%] | inhibition at 250 ppm (linseed) [%] | Length in cm with a concentration of active compound of 500 ppm [1] [cm] | inhibition at 50 ppm (oat grains) [%] | inhibition at 250 ppm (oat grains) [%] | inhibition at 500 ppm (apple seedlings) [%]
1 | Cc1cc(C(c2ccccc2)(c2ccc(F)cc2)n2cncn2)no1 (stereo not shown) [Compound 1, (4-fluoro-phenyl)-phenyl-(5-methyl-isoxazol-3-yl)-(1,2,4-triazol-1-yl)-methane] | 81 | 85 | 100 | 10.5 | 97 | 100 | 50
2 | Cn1ccnc1C(c1ccccc1)(c1ccc(C(C)(C)C)cc1)n1cncn1 (stereo not shown) [Compound 7, (4-tert.-butyl-phenyl)-phenyl(1-methyl-imidazol-2-yl)-(1,2,4-triazol-1-yl)-methane] | – | – | – | – | 25 | 62 | –
3 | Cc1cc(C(c2ccccc2)(c2ccccc2)n2cncn2)no1 [Compound 4, bis-phenyl-(5-methyl-isoxazol-3-yl)-(1,2,4-triazol-1-yl)-methane] | 80 | – | – | – | 65 | 75 | 43
4 | C[N+](C)(C)CCCl [(2-chloroethyl)-trimethyl-ammonium chloride, reference compound] | 25 | 20 | 30 | – | 22 | 31 | 25
5 | Cc1cccc(C(c2ccccc2)(c2nccn2C)n2cncn2)c1 (stereo not shown) [Compound 3, (3-methyl-phenyl)-phenyl-(1-methyl-imidazol-2-yl)-(1,2,4-triazol-1-yl)-methane] | 60 | 85 | 100 | – | – | – | –
6 | O=c1ccc(=O)[nH][nH]1 [maleic acid hydrazide, reference compound] | 33 | 36 | 50 | 12 | 20 | 40 | –
7 | Cn1ccnc1C(c1ccccc1)(c1ccc(Cl)cc1)n1cncn1 (stereo not shown) [Compound 6, (4-chloro-phenyl)-phenyl-(1-methyl-imidazol-2-yl)-(1,2,4-triazol-1-yl)-methane] | – | – | – | – | 25 | 70 | –
8 | CN(C)NC(=O)CCC(=O)O [succinic acid 2,2-dimethylhydrazide, reference compound] | 20 | 12 | 15 | – | 22 | 37 | 23
9 | Cc1cc(C(c2ccccc2)(c2ccc(Cl)cc2)n2cncn2)no1 (stereo not shown) [Compound 2, (4-chloro-phenyl)-phenyl-(5-methyl-isoxazol-3-yl)-(1,2,4-triazol-1-yl)-methane] | 88 | 55 | 85 | 10.0 | 55 | 95 | –
10 | Cn1ccnc1C(c1ccccc1)(c1ccc(-c2ccccc2)cc1)n1cncn1 (stereo not shown) [Compound 8, (4-phenyl-phenyl)-phenyl(1-methyl-imidazol-2-yl)-(1,2,4-triazol-1-yl)-methane] | – | – | – | 11.5 | – | – | –

Reference: patent US3941800A, “N-benzyltriazole compounds” (Bayer Aktiengesellschaft, priority 1969, dated 1976)
